# System: human hepatocytes
# Experiment: Metabolic conversion of prodrugs to active forms in human hepatocytes
# Format: in vitro ADME
# Conditions: active metabolites Example 1-A, Example 14-A and penciclovir, respectively
# Excerpt: A study was undertaken to evaluate the metabolic conversion of prodrugs, formula (II) or formula (IIa), to compounds of formula (I) or formula (Ia) of the present invention. The produgs, formula (II) or formula (IIa), can be metabolized to the active compound of formula (I) or formula (Ia) and other compounds of the invention in the body if they are served as prodrugs. Hepatocytes are often used to assess the degree of metabolic conversion of prodrugs in the body of animal or human. A study was undertaken to evaluate the metabolic conversion of prodrugs, Example 2-A, Example 3-A, Example 4-A, Example 16-A and Example 17-A, to the corresponding active forms, Example 1-A and Example 14-A, in the presence of human hepatocytes. The formation of active forms, Example 1-A and Example 14-A, were monitored in the study. For comparison, the metabolic conversion of famciclovir to penciclovir was also assessed. Cryopreserved hepatocytes plating medium (Cat. #: PY-HMD-01) was purchased from RILD Research Institute for Liver Diseases (Shanghai) Co. Ltd. Cryopreserved human hepatocyte (Cat. #: X008005, Lot #:VRR) was purchased from In Vitro Technologies (Baltimore, Md.). The stock hepatocyte suspension was prepared from cryopreserved hepatocytes in plating medium at the concentration of 1.8×10^6 cells/mL. […] Reaction suspensions were prepared in 24-well cell culture plate by mixing 200 μL of hepatocytes suspension (Cyno or human) and 200 μL of working solution. The final incubation contained 0.9×10^6 cells/mL and 50 μM compound. The above mixtures were incubated at 37° C. in a humidified 5% CO2 atmosphere, with a 150 rpm shaking. After 180 min of incubation, 200 μL of the incubation mixture was transferred to 1.5 mL tube and quenched with 400 μL stop solution (ice-cold acetonitrile with 0.2 μM Tolbutamide as internal standard). The samples were centrifuged at 12000 rpm for 10 minutes and the resultant supernatants were subjected to LC-MS/MS analysis. The calibration curves were prepared in the following way. To a 200 μL of cell suspension (cell density of 1.8 million cells/mL), 198 μL of hepatocyte plating medium and 2 μL of the appropriate concentration of the compound in DMSO were added. Samples were mixed thoroughly and 200 μL of the mixture was transferred to 400 uL of the stop solution (see above). […] The compounds were quantified on an API5500 […] instrument in the ESI-Positive MRM mode.
row,SMILES,Metabolic conversion of prodrug to active metabolite
1,"CCC(O)[C@@H]1C[C@@H](OC(C)=O)[C@H](n2c(=O)sc3cnc(N)nc32)O1 (single isomer, unassigned) [Example 3-A]",metabolized to yield the corresponding active metabolites
2,"Nc1ncc2sc(=O)n([C@@H]3O[C@H](C(O)C4CC4)C[C@H]3O)c2n1 (single isomer, unassigned) [Example 17-A]",metabolized to yield the corresponding active metabolites
3,"CC(=O)OCC(CCn1cnc2cnc(N)nc21)COC(C)=O [Famciclovir, famciclovir, reference compound]",metabolized to yield the corresponding active metabolites
4,"CCC(O)[C@@H]1C[C@@H](O)[C@H](n2c(=O)sc3cnc(N)nc32)O1 (single isomer, unassigned) [Example 2-A]",metabolized to yield the corresponding active metabolites
5,"CCC(OC(C)=O)[C@@H]1C[C@@H](O)[C@H](n2c(=O)sc3cnc(N)nc32)O1 (single isomer, unassigned) [Example 4-A]",metabolized to yield the corresponding active metabolites
6,"CC(=O)OC(C1CC1)[C@@H]1C[C@@H](O)[C@H](n2c(=O)sc3cnc(N)nc32)O1 (single isomer, unassigned) [Example 16-A]",metabolized to yield the corresponding active metabolites

# System: murine peripheral blood mononuclear cells (PBMC)
# Experiment: In vitro cytokine induction in murine PBMC (multiplex assay)
# Conditions: 2 to 10 μM, 24 hours, supernatant, dose-dependent
# Procedure: 50 μL of cell culture medium was collected and analyzed with a 36plex Procarta multiplex kit (ebioscience EPX360-26092-901, eBioscience), which measured the levels of 15 cytokine analytes, following the manufacturer's instruction.
row,SMILES,Cytokine induction in murine PBMC
1,"CCC(O)[C@@H]1C[C@@H](O)[C@H](n2c(=O)sc3c(=O)[nH]c(N)nc32)O1 (single isomer, unassigned) [Example 1-A]","high levels of IFNα, IP10, TNFα, and IL-6 were found induced"
